Test results published in US11578041B2, “Crystals of hydroxychloroquine sulfate” (Genovate Biotechnology Co. Ltd., priority 2020, dated 2023).

How the values were obtained:
[1] = Stability of crystal stirred in solvents, solid analysed by XRPD and chiral HPLC; assay type: physicochemical; settings: room temperature, 1 day
Experimental: Further, the stability of type A crystal was determined by stirring the crystal (10 mg) in each of nine solvent (0.5 mL) at room temperature for 1 day. For the nine solvents, see Table 6 below. The resulting solid was analyzed by XRPD and chiral HPLC containing a chiral column of DAICEL CHIRALCEL OD-H, 250×4.6 mm, 5 μm.

[2] = Hygroscopicity by dynamic vapor sorption analysis; assay type: physicochemical; settings: for RH at which moisture is adsorbed (adsorption curve) / moisture content: 25° C.; for RH at which moisture is adsorbed (adsorption curve): 5% RH increase per step from 0 to 95% RH; for moisture content: at 95% RH; for hygroscopicity compared with the amorphous form: overall conclusion
Experimental: Type A crystal, type B crystal, and an amorphous form of (S)-(+)-hydroxychloroquine sulfate were subjected to dynamic vapor sorption analysis to compare their hygroscopicity using a VTI-SA vapor sorption analyzer from TA Instruments (_New Castle, Del., USA). Each was exposed to a series of relative-humidity (“RH”)-change steps at 25° C., i.e, a 5% RH increase per step from 0 to 95% RH and then a 5% RH decrease per step from 95% to 5% RH.

[3] = Thermal stability by Variable Temperature PXRD under nitrogen; assay type: physicochemical
Experimental: The stability of type A crystal was also determined by heating the crystal to 30° C., 80° C., 130° C., 160° C., 180° C., and 210° C. under nitrogen using the Variable Temperature PXRD technique. […] Only when the temperature reached 80° C., 160° C. and 210° C., it was converted to type B, C, and D crystals, respectively.

[4] = Solubility test in 16 solvents by stepwise solvent addition; assay type: physicochemical
[5] = tested on: Rat Pleurisy Macrophage Model; settings: compared with (R)-(-)-isomer; cited from earlier work
[6] = animal study; cited from earlier work

## CCN(CCO)CCC[C@H](C)Nc1ccnc2cc(Cl)ccc12.O=S(=O)(O)O [type A crystal, (S)-(+)-hydroxychloroquine sulfate]
[1]; Acetone
  Crystal change: Not found
  ee of resulting solid: 95.4%
[1]; Acetonitrile
  Crystal change: Not found
  ee of resulting solid: 95.6%
[1]; Dichloromethane
  Crystal change: Not found
  ee of resulting solid: 95.8%
[1]; Ethanol
  Crystal change: Not found
  ee of resulting solid: 96.7%
[1]; Ethanol/water (9/1)
  Crystal change: Not found
[1]; Ethanol/water (9/1), starting ee 96.2%
  ee of resulting solid: 99.2%
[1]; Ethyl acetate
  Crystal change: Not found
  ee of resulting solid: 88.8%
[1]; Isopropyl acetate
  Crystal change: Not found
  ee of resulting solid: 95.5%
[1]; Methanol
  Crystal change: Clear solution
[1]; Tetrahydrofuran
  Crystal change: Not found
  ee of resulting solid: 95.3%
[1]; nine solvents
  stability in the test solvents (summary): unexpectedly stable in all test solvents except in methanol
[2]
  RH at which moisture is adsorbed (adsorption curve): > 85 % RH
  moisture content: 19%
  hygroscopicity compared with the amorphous form: less hygroscopic
[3]; Variable Temperature PXRD under nitrogen
  stability at room temperature: highly stable
[3]; heating under nitrogen
  temperature at which converted to type B crystal: 80 °C
  temperature at which converted to type C crystal: 160 °C
  temperature at which converted to type D crystal: 210 °C

## (±)-hydroxychloroquine [salt-free form of (±)-hydroxychloroquine]
[4]; 2-Methyl-tetrahydrofuran
  Solubility: >38 mg/mL
[4]; Acetone
  Solubility: >38 mg/mL
[4]; Acetonitrile
  Solubility: 6.7 to 20 mg/mL
[4]; Dichloromethane
  Solubility: >40 mg/mL
[4]; Dioxane
  Solubility: >40 mg/mL
[4]; Ethanol
  Solubility: >42 mg/mL
[4]; Ethyl acetate
  Solubility: 6.7 to 20 mg/mL
[4]; Isopropanol
  Solubility: >38 mg/mL
[4]; Isopropyl acetate
  Solubility: 6.7 to 20 mg/mL
[4]; Methanol
  Solubility: >40 mg/mL
[4]; Methyl isobutyl ketone
  Solubility: >42 mg/mL
[4]; Methyl tert-butyl ether
  Solubility: <2.1 mg/mL
[4]; Tetrahydrofuran
  Solubility: >38 mg/mL
[4]; Toluene
  Solubility: <2.0 mg/mL
[4]; Water
  Solubility: <1.9 mg/mL
[4]; n-Heptane
  Solubility: <2.1 mg/mL

## CCN(CCO)CCC[C@H](C)Nc1ccnc2cc(Cl)ccc12.O=S(=O)(O)O (single isomer, unassigned) [(S)-(+)-isomer]
[5]
  more efficacious than the (R)-(-)-isomer: 70%
[6]
  accumulation in ocular tissues compared with the (R)-(-)-isomer: much less

## CCN(CCO)CCC[C@H](C)Nc1ccnc2cc(Cl)ccc12.O=S(=O)(O)O [amorphous form, (S)-(+)-hydroxychloroquine sulfate, reference compound]
[2]
  RH at which moisture is adsorbed (adsorption curve): 25 % RH
  moisture content: 51%
[2]; compared with type A and type B crystals
  susceptibility to environment (desorption curve): much more susceptible to an environment

## CCN(CCO)CCC[C@H](C)Nc1ccnc2cc(Cl)ccc12.O=S(=O)(O)O [type B crystal, (S)-(+)-hydroxychloroquine sulfate]
[2]
  RH at which moisture is adsorbed (adsorption curve): higher than 60 % RH
  moisture content: 30%
  hygroscopicity compared with the amorphous form: less hygroscopic
